Experimental data from patent publication US6734318B2, “Fluorous triphase and other multiphase systems” (University of Pittsburgh, priority 2001, dated 2004).
Read-outs that look alike come from different tables or passages of the source. Marks after values point to notes of the source that are not given here.

Columns and labels:
[1] = Transfer of organic compounds between two MeCN phases through an FC-72 phase (U-tube); format: physicochemical; settings: two MeCN phases through FC-72, 23° C., 3 days
[2] = between FC-72 and MeOH
[3] = Selective transport of a fluorous-tagged component of a mixture through FC-72 between two acetonitrile phases; format: physicochemical
[4] = Transfer of 2a between two organic phases through an FC-72 phase (U-tube); format: physicochemical; settings: FC-72 stirred 23° C., 3 days
Procedure: 2-(2-Naphtylethanol) 2a (10 mg) was dissolved in an organic solvent (1 ml) and the mixture was put into one side (side A) of U-tube 10 of FIG. 1, in which FC-72 (10 ml) was placed. The other organic solvent was put into the other side (side B) of U-tube 10 and the center phase (FC-72) was stirred (via, for example, magnetic stirring element 130) at 23° C. for 3 days without mixing the interfaces between the organic and FC-72 layers. The weights of each organic phase were measured after evaporation.

[5] = U-tube transport of guest molecules from aqueous S-phase through FC-72 F-phase to basic aqueous P-phase, with or without fluorous transport agent 3b; format: physicochemical; settings: transport agent 3b about 1 mM in FC-72; S-phase water, P-phase pH 11.5 phosphate buffer; ambient temperature
Procedure: In an illustrative example, several transport experiments were carried out with a variety of guest molecules and fluorous transport agent 3b. The F-phase included transport agent 3b, at about 1 mM in the fluorous solvent FC-72. This F-phase was contacted in a U-tube with a first phase containing various organic compounds in water and a second aqueous phase containing hydroxide ion (pH 11.5 phosphate buffer). After various periods of time at ambient temperature, a portion of the more basic, P-phase was removed and subjected to quantitative analysis by UV absorbance spectrophotometry. The measured absorbances were converted to the concentration of each organic compound by the use of a calibration curve. The organic solutes tested were phenobarbital, secobarbital, mephobarbital, thiopental, 2-ethyl, 2-phenylmalonamide, and p-toluenesulfonate. […] The amount of each compound transported (as a fraction of the amount in the S-phase) is plotted versus time. The data points represent behavior of mephobarbital (represented by solid squares), secobarbital (represented by open squares), thiopental (represented by triangles), phenobarbital (represented by diamonds), malonamide and p-toluenesulfonate (both represented by open circles). Each of the barbiturates was transported through the fluorous phase in the presence of transport agent 3b. […]

With CC(N)c1cccc2ccccc12 (stereo not shown) [1-(1-naphthyl)ethylamine] the “ratio (A/B)” value [1] was 82/18.

With CC(O)c1ccc2ccccc2c1 (stereo not shown) [1-(2-naphthyl)ethanol] the “ratio (A/B)” value [1] was 96/4.

For CC(C)[Si](CCC(F)(F)C(F)(F)C(F)(F)C(F)(F)C(F)(F)C(F)(F)C(F)(F)C(F)(F)F)(OCCc1ccc2ccccc2c1)C(C)C [1a, diisopropyl-1H,1H,2H,2H-perfluorodecanylsilyl 2-naphthylethyl ether], the partition coefficient (FC-72 / CH2Cl2, 23 C) was 0.14, the partition coefficient (FC-72 / DMF, 23 C) was 0.38 and the partition coefficient (FC-72 / EtOH, 23 C) was 0.91. It also gave a partition coefficient (FC-72 / MeCN, 23 C) of 0.74, a partition coefficient (FC-72 / MeOH, 23 C) of 0.92 and a partition coefficient (FC-72 / THF, 23 C) of 0.04. The “Kp (partition coefficient)” value [2] was 0.92.

For CC(C)[Si](CCC(F)(F)C(F)(F)C(F)(F)C(F)(F)C(F)(F)C(F)(F)F)(OCCc1ccc2ccccc2c1)C(C)C [1c, Diisopropyl-1H,1H,2H,2H-perfluorooctanylsilyl 2-naphthylethyl ether], the “Kp (partition coefficient)” value [2] was 0.39.

In the case of CC(C)[Si](CCC(F)(F)C(F)(F)C(F)(F)C(F)(F)C(F)(F)C(F)(F)C(F)(F)C(F)(F)F)(O[C@@H](C)c1ccc2ccccc2c1)C(C)C [1f, diisopropyl-1H,1H,2H,2H-perfluorodecanylsilyl (S)-(−)-1-(2-naphthyl)ethyl ether], the “Kp (partition coefficient)” value [2] is reported as 1.5.

In the case of CC(C)[Si](CCC(F)(F)C(F)(F)C(F)(F)C(F)(F)C(F)(F)C(F)(F)C(F)(F)C(F)(F)F)(OCC=Cc1ccccc1)C(C)C [1g, (3,3,4,4,5,5,5,6,6,7,7,8,8,9,9,10,10,10,10-heptadecafluorodecyl)-diisopropyl(3-phenyl-allyloxy)silane], the “Mass of the residue (P-phase)” value ([3]; P-phase removed at 3 h, 1/1 mixture of 2a and 1g in acetonitrile S-phase) is reported as 4.5 mg, the “Mass of the residue (P-phase)” value ([3]; P-phase removed at 7 h, fresh acetonitrile after each removal) is reported as 6 mg and the “Mass of the residue (P-phase)” value ([3]; P-phase removed at 24 h, fresh acetonitrile after each removal) is reported as 7 mg. For the same compound, the “Kp (partition coefficient)” value [2] was 1.3.

With CCc1ccc2ccccc2c1 [2-ethylnaphthalene] the “ratio (A/B)” value [1] was 66/33^a.

In the case of CC(=O)Oc1ccc2ccccc2c1 [2-naphthyl acetate], the “ratio (A/B)” value [1] is reported as 94/6.

With O=C(O)Cc1ccc2ccccc2c1 [2-naphthylacetic acid] the “ratio (A/B)” value [1] was >99/1.

In the case of CC(=O)Cc1ccc2ccccc2c1 [2-naphthylacetone], the “ratio (A/B)” value [1] is reported as 91/9.

In the case of N#CCc1ccc2ccccc2c1 [2-naphthylacetonitrile], the “ratio (A/B)” value [1] is reported as 99/1.

In the case of OCCc1ccc2ccccc2c1 [2a, 2-(2-naphthyl)ethanol], the “ratio of 2a (A/B)” value ([4]; side A MeCN, side B MeCN) is reported as 99/1, the “ratio of 2a (A/B)” value ([4]; side A MeCN, side B MeOH) is reported as >99/1 and the “ratio of 2a (A/B)” value ([4]; side A MeCN, side B THF) is reported as >99/1. The “ratio of 2a (A/B)” value ([4]; side A MeOH, side B MeCN) was 99/1, the “ratio of 2a (A/B)” value ([4]; side A MeOH, side B MeOH) was 99/1 and the “ratio of 2a (A/B)” value ([4]; side A MeOH, side B THF) was 96/4. The “ratio of 2a (A/B)” value ([4]; side A THF, side B MeOH) was 97/3, the “ratio of 2a (A/B)” value ([4]; side A THF, side B THF) was 90/10 and the “ratio (A/B)” value [1] was 99/1. For the same compound, the “presence in P-phase by TLC or 1H NMR” value ([3]; after 1d, 1/1 mixture with 1g in acetonitrile S-phase) was “not detected”.

With OCC=Cc1ccccc1 [cinnamyl alcohol] the “ratio (A/B)” value [1] was 99/1.

In the case of CCCCCCCCCCCCO [dodecanol], the “ratio (A/B)” value [1] is reported as 96/4.

In the case of N#CCC#N [malononitrile], the “ratio (A/B)” value [1] is reported as >99/1.

In the case of p-toluenesulfonate, the “transport through the fluorous phase to the P-phase” value [5] is reported as “no transport”.
